# Measurements from patent US20260217701A1, “SELECTIVE BET INHIBITORS AND USES THEREOF” (Tay Therapeutics Limited, priority 2022, published 2026).
# Several values for one entry are separate records, joined by “and”; a condition that tells them apart may be missing. Identical values can stand only once. Like-named read-outs stand apart in the source and are kept apart here.
# How the values were obtained:
# [1] = CIA study: clinical observations; format: in vivo, Lewis rats; conditions: CIA rats
# [2] = UUO study: body weight; format: in vivo; conditions: UUO rats; for Body Weight: 10 mg/kg QD, 10 mg/kg; for Mean + SD of Body Weight: group 3, group mean
# [3] = target: T1, BRD4 BD2 (Homo sapiens, UniProt O60885); assay: NanoBRET bromodomain assay, NanoLuc-BRD4-BD2 in HEK293 cells; format: binding; conditions: for Selectivity (BD1/BD2) / BD2: nanoBRET assay, given as symbol only; for Selectivity (BD1/BD2): higher number denotes higher selectivity; for BD2: lower number denotes higher potency
# T1 construct: HEK293 cells were transfected using NanoLuc-BRD4-BD1 or NanoLuc-BRD4-BD2 fusion vectors
# Description: Plates were then incubated at 37° C.+5% CO2 incubator for 2 hours.
# Fold Selectivity Calculated (IC50 BD1/IC50 BD2).
# [4] = system: hydroxyproline; assay: UUO study: hydroxyproline levels; format: in vivo, rats
# From the text: Table 31 and FIGS. 27B-27C depict hydroxyproline levels in sham rats (black bar in FIG. 27B; square shape in FIG. 27C), UUO rats treated with vehicle (grey bar in FIG. 27B; circle shape in FIG. 27C), and UUO rats treated with Compound A (white bar in FIG. 27B; triangle shape in FIG. 27C).
# [5] = system: BET BD2; conditions: public sources, not a head-to-head trial, cited from earlier work; for BD2: comparator BET inhibitors
structure (smiles),measurement,setting,value
"Cn1cc(-c2ccccc2)c(-c2cn(C)c(=O)c3[nH]c(-c4cnn(C(F)(F)F)c4)cc23)cc1=O [Compound A, 6-methyl-4-(1-methyl-2-oxo-5-phenyl-1,2-dihydropyridin-4-yl)-2-(1-(trifluoromethyl)-1H-pyrazol-4-yl)-1,6-dihydro-7H-pyrrolo[2,3-c]pyridin-7-one]",Clinical observations,"[1]; 1 mg/kg, Day 16",Diarrhea
same,Clinical observations,"[1]; 3 mg/kg, Day 13",Diarrhea
same,Clinical observations,"[1]; 3 mg/kg, Day 14",Diarrhea
same,Clinical observations,"[1]; 3 mg/kg, Day 15",Diarrhea
same,Clinical observations,"[1]; 3 mg/kg, Day 16",Diarrhea
same,Clinical observations,"[1]; 3 mg/kg, Day 21",Diar-
same,Clinical observations,"[1]; 10 mg/kg, Day 12",Diarrhea
same,Clinical observations,"[1]; 10 mg/kg, Day 13",Diarrhea
same,Clinical observations,"[1]; 10 mg/kg, Day 14",Diarrhea
same,Clinical observations,"[1]; 10 mg/kg, Day 15",Diarrhea
same,Clinical observations,"[1]; 10 mg/kg, Day 16",Diarrhea
same,Clinical observations,"[1]; 10 mg/kg, Day 17",Diarrhea
same,Clinical observations,"[1]; 10 mg/kg, Day 18",Diarrhea
same,Body Weight,"[2]; individual animals 1-8, Day 0",304 g (2×) and 308 g and 291 g and 306 g and 307 g
same,Body Weight,"[2]; individual animals 1-8, Day 1",290 g and 296 g and 304 g and 281 g and 279 g and 298 g
same,Body Weight,"[2]; individual animals 1-8, Day 2",283 g and 294 g and 297 g and 281 g and 275 g and 290 g
same,Body Weight,"[2]; individual animals 1-8, Day 3",286 g and 292 g and 298 g and 280 g and 276 g and 288 g
same,Body Weight,"[2]; individual animals 1-8, Day 4",285 g and 288 g and 301 g and 277 g and 275 g and 294 g
same,Body Weight,"[2]; individual animals 1-8, Day 5",283 g and 290 g and 300 g and 278 g and 268 g and 285 g
same,Body Weight,"[2]; individual animals 1-8, Day 6",283 g and 290 g (2×) and 297 g and 281 g and 266 g and 275 g
same,Body Weight,"[2]; individual animals 1-8, Day 7",290 g and 285 g and 303 g and 280 g and 260 g and 299 g and 274 g
same,Body Weight,"[2]; individual animals 1-8, Day 8",295 g and 284 g and 304 g and 279 g and 262 g and 303 g and 275 g
same,Body Weight,"[2]; individual animals 1-8, Day 9",305 g and 284 g (2×) and 310 g and 279 g and 304 g and 275 g
same,Body Weight,"[2]; individual animals 1-8, Day 10",300 g and 284 g and 311 g and 277 g and 270 g and 304 g
same,Body Weight,"[2]; individual animals 1-8, Day 11",298 g and 297 g and 311 g and 278 g and 271 g and 315 g
same,Body Weight,"[2]; individual animals 1-8, Day 12",295 g and 291 g and 319 g and 283 g and 271 g and 315 g
same,Body Weight,"[2]; individual animals 1-8, Day 13",294 g and 293 g and 318 g and 286 g and 270 g and 320 g
same,Body Weight,"[2]; individual animals 1-8, Day 14",298 g and 296 g and 322 g and 291 g and 281 g and 331 g
same,Body Weight,"[2]; individual animals 1-8, Day −1",284 g and 304 g and 299 g and 289 g and 297 g and 301 g
same,Mean + SD of Body Weight,[2]; Day 0,302 ± 6 g
same,Mean + SD of Body Weight,[2]; Day 1,288 ± 11 g
same,Mean + SD of Body Weight,[2]; Day 2,285 ± 8 g
same,Mean + SD of Body Weight,[2]; Day 3,284 ± 9 g
same,Mean + SD of Body Weight,[2]; Day 4,283 ± 11 g
same,Mean + SD of Body Weight,[2]; Day 5,281 ± 11 g
same,Mean + SD of Body Weight,[2]; Day 6,282 ± 10 g
same,Mean + SD of Body Weight,[2]; Day 7,284 ± 14 g
same,Mean + SD of Body Weight,[2]; Day 8,285 ± 15 g
same,Mean + SD of Body Weight,[2]; Day 9,291 ± 13 g
same,Mean + SD of Body Weight,[2]; Day 10,289 ± 14 g
same,Mean + SD of Body Weight,[2]; Day 11,292 ± 17 g
same,Mean + SD of Body Weight,[2]; Day 12,294 ± 17 g
same,Mean + SD of Body Weight,[2]; Day 13,296 ± 17 g
same,Mean + SD of Body Weight,[2]; Day 14,300 ± 18 g
same,Mean + SD of Body Weight,[2]; Day −1,294 ± 7 g
same,Body weight course,"[2]; 10 mg/kg daily, 14-day study",slight weight loss over the course of the 14-day study before regaining their original weight
same,selectivity for BDII relative to GSK620,[3],greater than about two orders of magnitude
same,Selectivity (BD1/BD2),[3],>>>>
same,BD2,[3],<
same,EC50,"[3]; previously determined, reference level for rat plasma concentrations (FIG. 4D), read-out: free EC50 BD2 BRD4 (converted)",18.9 nM
same,EC50,"[3]; reference level for dog plasma concentrations (Dog PK study #4), read-out: free EC50 BD2 BRD4 (converted)",14.5 nM
same,EC50,"[3]; stated with the CIA study PK, domain not stated, read-out: free EC50 (converted)",17.2 nM
same,"Final Hydroxyproline Con., Mean","[4]; UUO rats + Compound A, group mean of 8",0.66 μg/mg tissue
same,"Final Hydroxyproline Con., Mean ± SEM","[4]; UUO rats + Compound A, group of 8",0.66 ± 0.05 μg/mg tissue
same,Final Hydroxyproline Con.,"[4]; UUO rats + Compound A, individual animals",0.69 μg/mg tissue and 0.86 μg/mg tissue and 0.63 μg/mg tissue and 0.61 μg/mg tissue (2×) and 0.64 μg/mg tissue and 0.44 μg/mg tissue and 0.80 μg/mg tissue
same,"Hydroxyproline levels, difference between experimental groups","[4]; UUO rats, 10 mg/kg",No significant differences
"COCCn1cc(-c2ccccc2)c(-c2cn(C)c(=O)c3[nH]c(-c4cnn(C(F)(F)F)c4)cc23)cc1=O [Compound B, 4-(1-(2-methoxyethyl)-2-oxo-5-phenyl-1,2-dihydropyridin-4-yl)-6-methyl-2-(1-(trifluoromethyl)-1H-pyrazol-4-yl)-1,6-dihydro-7H-pyrrolo[2,3-c]pyridin-7-one]",Selectivity (BD1/BD2),[3],>>>>
same,BD2,[3],≤
CNC(=O)c1cc(C(=O)NC2CC2)cn(Cc2ccccc2)c1=O [GSK620],BD2,[5],79 nM
CCNC(=O)c1cc2c(-c3cc(C(C)(C)O)ccc3Oc3c(C)cc(F)cc3C)cn(C)c(=O)c2[nH]1 [ABBV-744],Selectivity (BD1/BD2),"[5]; FRET, comparator",753x (FRET)
same,BD2,[5],28 nM
